Entries after “also recorded” stand apart in the source; their conditions may differ.
What was measured:
[1] = Stability in plasma (mouse); type: in vitro ADME; settings: after 120 minutes, 37° C.
Description: The pH of plasma was adjusted to 7.4±0.1 if required. 1 mM intermediate solution was prepared by diluting 10 μL of the 10 mM stock solution of 1 with 90 μL DMSO; 1 mM intermediate of positive control propantheline bromide was prepared by diluting 10 μL of the stock solution with 90 μL ultra-pure water. 100 μM dosing solution was prepared by diluting 10 μL of the 1 mM intermediate solution with 90 μL of 45% MeOH/H2O. 98 μL of blank plasma was spiked with 2 μL of the 100 μM dosing solution to achieve a final concentration of 2 μM of the compound in duplicate. Samples were incubated at 37° C. in a water bath. At each time point (0, 10, 30, 60 and 120 min), 400 μL of stop solution (200 ng/mL tolbutamide plus 200 ng/mL labetalol in 50% ACN/MeOH) was added and was mixed thoroughly to precipitate protein. Sample plates were centrifuged at 4,000 rpm for 10 min. An aliquot of supernatant (100 μL) was transferred from each well and was mixed with 200 μL ultra-pure water. The samples were shaken at 800 rpm for about 10 min before LC/MS/MS analysis.
The remaining percentage of compound 1 (test article) after incubation was calculated according to the following equation.

[2] = Stability in hepatocytes (mouse); type: in vitro ADME; settings: cryopreserved mouse hepatocytes (suspension)
Description: 10 mM of 1 was provided as a 1000× stock solution in dimethylsulfoxide (DMSO), and the stock solution was diluted to 1 mM with DMSO in 96-well plates. 30 mM of positive compounds (7-ethoxycoumarin and 7-hydroxycoumarin) were provided as a 1000× stock solution in DMSO, and the stock solution was diluted to 3 mM with DMSO in 96-well plates. 20 μL of 1000× stock solution of each compound were pipetted and was mixed with 380 μL of 45% MeOH/H2O to obtain 50 μM of 1 and 150 μM of the positive control compound solutions to form 50× intermediate solutions. 20 μL of 50× intermediate solution of each compound were pipetted and was mixed with […] of pre-warmed incubation medium to obtain 5 μM of 1 and 15 μM of the positive control compound solutions to form 5× working solutions. The incubation medium was Williams' Medium E (no phenol red) containing 2 mM L-glutamine and 25 mM HEPES. 10 μL of 5× working solutions of each compound were pipetted into appropriate wells in a 96-well plate for time points of 0 minutes, 15 minutes, 30 minutes, 60 minutes, and 90 minutes in duplicates. The plates with compounds were kept warm in an incubator at 37° C.
A cell suspension was prepared by thawing cryopreserved cells, isolating the cells, and suspending the cells in thawing medium. […]
The remaining percentage of 1 after incubation was calculated according to the following equation. […]

[3] = test system: EPC2 human esophageal keratinocytes; test: Stimulation of EPC2-hTERT human esophageal keratinocytes with Poly(I:C); type: cell-based; settings: 24 hours, increasing concentrations
Description: EPC2-hTERT (EPC2) cells were maintained in supplemented keratinocyte serum-free medium (KSFM) with 0.09 mM calcium chloride containing epidermal growth factor (5 ng/mL), bovine pituitary extract ([…]), penicillin (100 units/mL), and streptomycin ([…]) (ThermoFisher #17005042) at 37° C. with 5% (v/v) CO2. EPC2 cells were seeded in 12-well plates at 0.55×10^6 cells per well in supplemented KSFM at 37° C. with 5% (v/v) CO2 and after 6 hours the old media is removed and changed with fresh media. After overnight incubation, the old media is changed to supplemented KSFM containing 1.8 mM calcium chloride and incubated for 72 hours at 37° C. with 5% (v/v) CO2. After the old media is removed and fresh supplemented KSFM containing 1.8 mM calcium chloride is added, the cells are pre-treated with different concentrations of compounds (0, 1, 10, 100, 500, 1000 μM) for 1 hour prior to stimulation. To stimulate the cells, Poly (I:C) (Tocris #4287) is added to the wells at […] concentration without removing the media and incubated for 24 hours at 37° C. with 5% (v/v) CO2. Supernatants are collected in Eppendorf tubes, centrifuged in a microfuge at maximum speed for 10 minutes at 4° C., and the centrifuged supernatants stored at −80° C. until quantitative detection assays are performed. Human Interleukin-6 (IL-6), Monocyte Chemoattractant Protein-1 (MCP-1), and Thymic stromal lymphopoietin (TSLP) released from supernatants collected post stimulation were measured using the AlphaLISA detection kit for human IL-6, MCP-1, and TSLP, respectively.

With `C[C@H](CC/C=C/C(=O)O)O[C@@H]1O[C@@H](C)[C@H](O)C[C@H]1O` [ascr #7, reference compound] the “remaining percentage after incubation” value [1] was 103.4% and the half-life at 1 µM [2] was greater than 3.61 h.
In the case of `C[C@H](CC/C=C/C(=O)OC(C)(C)C)O[C@@H]1O[C@@H](C)[C@H](O)C[C@H]1O` [Compound 1, tert-butyl (2E,6R)-6-{[(2R,3R,5R,6S)-3,5-dihydroxy-6-methyloxan-2-yl]oxy}hept-2-enoate], the “percent inhibition relative to Stimulated of TSLP expression” value ([3]; FIG. 19A) is reported as “statistically significant inhibition; also recorded: robust blocking”, the “percent inhibition relative to Stimulated of IL-6 expression” value ([3]; FIG. 19B) is reported as “inhibited IL-6 expression in statistically significant, dose-dependent manner” and the “percent inhibition relative to Stimulated of MCP-1 expression” value ([3]; FIG. 19C) is reported as “inhibited MCP-1 expression in statistically significant, dose-dependent manner”.

Reference: patent US11845770B2, “Ascaroside derivatives and methods of use” (California Institute of Technology, priority 2019, dated 2023)
